Laboratory results: paper PMC8591201, “Anti-Tumor Activity of AZD4547 Against NTRK1 Fusion Positive Cancer Cells Through Inhibition of NTRKs” (Frontiers in Oncology, 2021)

What was measured:
TRKC = biological target: T1, TRKC (Homo sapiens, UniProt Q16288); assay: radiometric biochemical kinase assay
T1 construct: gene NTRK3

C8161 = assay: cells; parameters: Anti-proliferation, 10-point dose response, CellTiter-Glo luminescence (MTT stated for KM12(Luc)), GI50 fitted in Prism; conditions: Homo sapiens, C8161, 72 h, read-out: GI50 (µM) a
NCI-H1437 = assay: cells; parameters: Anti-proliferation, 10-point dose response, CellTiter-Glo luminescence (MTT stated for KM12(Luc)), GI50 fitted in Prism; conditions: Homo sapiens, NCI-H1437, 72 h, read-out: GI50 (µM) a
MKN45 = assay: cells; parameters: Anti-proliferation, 10-point dose response, CellTiter-Glo luminescence (MTT stated for KM12(Luc)), GI50 fitted in Prism; conditions: Homo sapiens, MKN-45, 72 h, read-out: GI50 (µM) a
A172 = assay: cells; parameters: Anti-proliferation, 10-point dose response, CellTiter-Glo luminescence (MTT stated for KM12(Luc)), GI50 fitted in Prism; conditions: Homo sapiens, A 172, 72 h, read-out: GI50 (µM) a

T1 sequence (Q16288 32-839): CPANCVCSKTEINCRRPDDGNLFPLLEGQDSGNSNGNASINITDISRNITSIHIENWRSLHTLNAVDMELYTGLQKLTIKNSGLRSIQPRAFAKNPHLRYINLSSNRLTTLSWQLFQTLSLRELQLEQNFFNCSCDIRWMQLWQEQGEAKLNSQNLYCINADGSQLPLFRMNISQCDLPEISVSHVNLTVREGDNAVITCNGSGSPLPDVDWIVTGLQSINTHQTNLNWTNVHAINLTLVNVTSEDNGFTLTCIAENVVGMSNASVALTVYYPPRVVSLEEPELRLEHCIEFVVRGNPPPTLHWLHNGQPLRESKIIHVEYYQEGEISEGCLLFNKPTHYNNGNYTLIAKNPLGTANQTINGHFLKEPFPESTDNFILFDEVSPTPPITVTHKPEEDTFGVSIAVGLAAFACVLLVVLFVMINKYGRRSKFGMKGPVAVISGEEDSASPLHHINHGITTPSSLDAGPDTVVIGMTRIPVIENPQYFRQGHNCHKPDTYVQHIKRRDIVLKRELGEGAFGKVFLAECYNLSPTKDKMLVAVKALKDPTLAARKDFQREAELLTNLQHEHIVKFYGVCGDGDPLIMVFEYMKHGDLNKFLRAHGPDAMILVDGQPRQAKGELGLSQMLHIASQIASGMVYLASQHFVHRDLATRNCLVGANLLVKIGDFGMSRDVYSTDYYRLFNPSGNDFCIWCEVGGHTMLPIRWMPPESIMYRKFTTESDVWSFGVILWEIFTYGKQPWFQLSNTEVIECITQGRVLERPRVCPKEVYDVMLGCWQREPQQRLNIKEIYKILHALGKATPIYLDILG

For `COc1cc(CCc2cc(NC(=O)c3ccc(N4C[C@@H](C)N[C@@H](C)C4)cc3)n[nH]2)cc(OC)c1` [AZD4547], the IC50 (TRKC) was 0.001 µM, the GI50 (C8161) was 11.1 µM and the GI50 (NCI-H1437) was 40.3 µM. For the same compound, the GI50 (MKN45) was 12 µM and the GI50 (A172) was 2.18 µM.
